Data taken from ChEMBL document CHEMBL6092157, “PET imaging assist investigation of HDAC6 expression change in MDD and evaluating antidepressant efficacy of a newly developed HDAC6 inhibitor” (Eur J Med Chem, 2024).
The source made the active and inactive calls. No cut-off for these calls is given here.

How the values were obtained:
Mus musculus [1] = assay: Antidepressant activity in chronic unpredictable mild stress C57BL/6 mouse model assessed as longer duration spent in central area of open field at 20 mg/kg, ip qd for 21 days by open field test; type: functional, organism-based; details: time 21.0 day
[2] = Toxicity in chronic unpredictable mild stress C57BL/6 mouse model assessed as damage in organs at 20 mg/kg, ip qd for 21 days by H and E staining based analysis; type: organism-based; details: in vivo, 504 h, time 21 day
[3] = Ratio of drug concentration in brain to plasma of C57BL/6 mouse at 1 mg/kg, ip measured for 0.5 hrs by LC-MS/MS analysis; type: ADME, organism-based; details: read-out: BPR
[4] = target: T1, Protein deacetylase HDAC6 (Mus musculus) (UniProt Q9Z2V5); assay: In vivo inhibition of HDAC6 in brain of chronic unpredictable mild stress C57BL/6 mouse model by IHC analysis; type: functional, organism-based
T1 sequence (whole entry): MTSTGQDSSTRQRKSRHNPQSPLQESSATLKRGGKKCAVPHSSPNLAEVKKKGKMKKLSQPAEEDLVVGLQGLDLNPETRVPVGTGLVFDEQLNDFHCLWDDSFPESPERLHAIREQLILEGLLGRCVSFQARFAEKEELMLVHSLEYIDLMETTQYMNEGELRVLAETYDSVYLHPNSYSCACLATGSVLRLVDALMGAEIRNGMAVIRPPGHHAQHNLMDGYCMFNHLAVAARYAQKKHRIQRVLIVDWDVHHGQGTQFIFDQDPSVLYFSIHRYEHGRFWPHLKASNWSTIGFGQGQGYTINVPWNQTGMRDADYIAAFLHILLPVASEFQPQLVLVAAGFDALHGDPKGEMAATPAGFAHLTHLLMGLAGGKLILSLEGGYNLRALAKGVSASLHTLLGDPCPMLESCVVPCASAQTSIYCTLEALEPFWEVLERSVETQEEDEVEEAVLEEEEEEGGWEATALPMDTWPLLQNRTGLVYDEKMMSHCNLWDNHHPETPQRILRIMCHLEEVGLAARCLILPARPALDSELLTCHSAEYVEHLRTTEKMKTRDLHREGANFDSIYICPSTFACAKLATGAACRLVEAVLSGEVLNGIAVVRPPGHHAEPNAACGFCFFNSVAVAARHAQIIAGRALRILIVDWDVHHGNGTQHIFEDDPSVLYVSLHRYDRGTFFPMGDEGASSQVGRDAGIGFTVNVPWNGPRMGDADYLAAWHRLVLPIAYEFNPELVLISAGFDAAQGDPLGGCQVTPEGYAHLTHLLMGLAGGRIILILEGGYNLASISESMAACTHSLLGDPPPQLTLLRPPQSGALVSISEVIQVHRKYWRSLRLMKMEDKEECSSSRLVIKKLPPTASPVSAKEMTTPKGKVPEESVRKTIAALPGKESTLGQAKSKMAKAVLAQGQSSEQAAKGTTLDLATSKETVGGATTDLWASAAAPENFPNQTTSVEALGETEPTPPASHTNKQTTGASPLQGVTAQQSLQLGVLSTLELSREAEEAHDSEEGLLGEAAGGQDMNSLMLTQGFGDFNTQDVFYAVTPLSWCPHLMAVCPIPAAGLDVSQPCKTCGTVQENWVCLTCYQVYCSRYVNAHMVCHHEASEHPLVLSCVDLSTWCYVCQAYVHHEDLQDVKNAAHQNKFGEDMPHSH

[5] = Toxicity in chronic unpredictable mild stress C57BL/6 mouse model assessed as abnormality in organs at 20 mg/kg, ip qd for 21 days by H and E staining based analysis; type: organism-based; details: in vivo, 504 h, time 21 day
[6] = Drug concentration in plasma of C57BL/6 mouse at 1 mg/kg, ip measured for 4 hrs by LC-MS/MS analysis; type: ADME, organism-based
[7] = MRT (0 to infinity) in C57BL/6 mouse at 20 mg/kg, iv by LC-MS/MS analysis; type: ADME, organism-based; details: in vivo
[8] = Cmax in C57BL/6 mouse at 20 mg/kg, iv by LC-MS/MS analysis; type: ADME, organism-based; details: in vivo
[9] = Tmax in C57BL/6 mouse at 20 mg/kg, ip by LC-MS/MS analysis; type: ADME, organism-based; details: in vivo
[10] = Toxicity in chronic unpredictable mild stress C57BL/6 mouse model assessed as animal death at 20 mg/kg, ip qd for 21 days; type: organism-based; details: in vivo, 504 h, time 21 day
[11] = MRT (0 to infinity) in C57BL/6 mouse at 20 mg/kg, ip by LC-MS/MS analysis; type: ADME, organism-based; details: in vivo
[12] = Drug concentration in brain of C57BL/6 mouse at 1 mg/kg, ip measured for 4 hrs by LC-MS/MS analysis; type: ADME, organism-based; details: read-out: Ct
Mus musculus [13] = assay: Antidepressant activity in chronic unpredictable mild stress C57BL/6 mouse model assessed as reduction in immobility time at 20 mg/kg, ip qd for 21 days by tail suspension test; type: functional, organism-based; details: time 21.0 day
[14] = Drug concentration in plasma of C57BL/6 mouse at 1 mg/kg, ip measured for 1 hr by LC-MS/MS analysis; type: ADME, organism-based
Mus musculus [15] = species on record: Mus musculus; assay: Upregulation of tubulin acetylation in brain of chronic unpredictable mild stress C57BL/6 mouse model by IHC analysis; type: functional, organism-based
[16] = Drug concentration in brain of C57BL/6 mouse at 1 mg/kg, ip measured for 0.5 hrs by LC-MS/MS analysis; type: ADME, organism-based; details: read-out: Ct
Mus musculus [17] = assay: Antidepressant activity in chronic unpredictable mild stress C57BL/6 mouse model assessed as longer duration spent in central area at 20 mg/kg, ip qd for 21 days by open field test; type: functional, organism-based; details: time 21.0 day
[18] = Ratio of drug concentration in brain to plasma of C57BL/6 mouse at 1 mg/kg, ip measured for 1 hr by LC-MS/MS analysis; type: ADME, organism-based; details: read-out: BPR
[19] = Half life in C57BL/6 mouse at 20 mg/kg, ip by LC-MS/MS analysis; type: ADME, organism-based; details: in vivo
[20] = Half life in C57BL/6 mouse at 20 mg/kg, iv by LC-MS/MS analysis; type: ADME, organism-based; details: in vivo
[21] = AUC (0 to infinity) in C57BL/6 mouse at 20 mg/kg, iv by LC-MS/MS analysis; type: ADME, organism-based; details: in vivo
[22] = Drug concentration in plasma of C57BL/6 mouse at 1 mg/kg, ip measured for 0.5 hrs by LC-MS/MS analysis; type: ADME, organism-based
[23] = […] bioavailability in C57BL/6 mouse at 20 mg/kg by LC-MS/MS analysis; type: ADME, organism-based; details: in vivo
[24] = Toxicity in chronic unpredictable mild stress C57BL/6 mouse model assessed as histomorphological changes at 20 mg/kg, ip qd for 21 days; type: organism-based; details: in vivo, 504 h, time 21 day
[25] = Drug concentration in brain of C57BL/6 mouse at 1 mg/kg, ip measured for 1 hr by LC-MS/MS analysis; type: ADME, organism-based; details: read-out: Ct
[26] = AUC (0 to infinity) in C57BL/6 mouse at 20 mg/kg, ip by LC-MS/MS analysis; type: ADME, organism-based; details: in vivo
[27] = Cmax in C57BL/6 mouse at 20 mg/kg, ip by LC-MS/MS analysis; type: ADME, organism-based; details: in vivo
Mus musculus [28] = assay: Antidepressant activity in chronic unpredictable mild stress C57BL/6 mouse model assessed as shorter feeding latency to eat at 20 mg/kg, ip qd for 21 days by novelty-suppressed feeding test; type: functional, organism-based; details: time 21.0 day
[29] = Ratio of drug concentration in brain to plasma of C57BL/6 mouse at 1 mg/kg, ip measured for 4 hrs by LC-MS/MS analysis; type: ADME, organism-based; details: read-out: BPR
[30] = Drug uptake in hippocampus of chronic unpredictable mild stress C57BL/6 mouse model by PET imaging analysis; type: ADME, tissue-based; details: in vivo
[31] = Drug uptake in striatum of chronic unpredictable mild stress C57BL/6 mouse model by PET imaging analysis; type: ADME, tissue-based; details: in vivo
[32] = Drug uptake in lung of chronic unpredictable mild stress C57BL/6 mouse model by PET imaging analysis; type: ADME, tissue-based; details: in vivo
[33] = Drug uptake in heart of chronic unpredictable mild stress C57BL/6 mouse model by PET imaging analysis; type: ADME, tissue-based; details: in vivo
[34] = Drug uptake in kidney of chronic unpredictable mild stress C57BL/6 mouse model by PET imaging analysis; type: ADME, tissue-based; details: in vivo
[35] = Drug uptake in liver of chronic unpredictable mild stress C57BL/6 mouse model by PET imaging analysis; type: ADME, tissue-based; details: in vivo
[36] = Drug uptake in spleen of chronic unpredictable mild stress C57BL/6 mouse model by PET imaging analysis; type: ADME, tissue-based; details: in vivo
[37] = Drug uptake in hypothalamus of chronic unpredictable mild stress C57BL/6 mouse model by PET imaging analysis; type: ADME, tissue-based; details: in vivo

For `Cc1ccc2c(n1)N(Cc1ccc(C(=O)NO)cc1F)CCC2`, the Activity (Mus musculus [1]) was “Active”, the Activity [2] was “Non-toxic” and the Kp at 0.5 h [3] was 7.9. For the same compound, the inhibition [4] was “Active”, the Activity [5] was “Non-toxic” and the concentration at 4 h [6] was 0.21 ng/mL. It also gave an MRT inf [7] of 17.4 min, a Cmax [8] of 3600 ng/mL and a Tmax [9] of 4.98 min. For the same compound, the Activity [10] was “Non-toxic”, the MRT inf [11] was 24 min and the concentration at 4 h [12] was 0.42 ng/mL. For the same compound, the Activity (Mus musculus [13]) was “Active”, the concentration at 1 h [14] was 2.6 ng/mL and the Activity (Mus musculus [15]) was “Active”. The concentration at 0.5 h [16] was 26.5 ng/mL, the Activity (Mus musculus [17]) was “Active” and the Kp at 1 h [18] was 3.9. The half-life [19] was 54.6 min, the half-life [20] was 33 min and the AUC(0-inf) [21] was 1090 ng·h/mL. For the same compound, the concentration at 0.5 h [22] was 3.3 ng/mL, the bioavailability [23] was 47.7% and the Activity [24] was “Non-toxic”. It also gave a concentration at 1 h [25] of 10.3 ng/mL, an AUC(0-inf) [26] of 522 ng·h/mL and a Cmax [27] of 1510 ng/mL. For the same compound, the Activity (Mus musculus [28]) was “Active” and the Kp at 4 h [29] was 2.1.

For `CN(Cc1ccc(C(=O)NO)cc1[18F])CC12CC3CC(CC(C3)C1)C2`, the Drug uptake [30] was “Active”, the Drug uptake [31] was “Active” and the Drug uptake [32] was “Active”. For the same compound, the Drug uptake [33] was “Active”, the Drug uptake [34] was “Active” and the Drug uptake [35] was “Active”. For the same compound, the Drug uptake [36] was “Active” and the Drug uptake [37] was “Active”.
